From PubChem BioAssay AID1259333 (Broad Institute, 2017)
Values joined by “and” are separate entries in the source; they are usually repeats but may differ in a detail not shown here. Identical values can stand only once. Active and inactive are the calls of the source. How the calls were made is not given here; tested in parental BL2 cells. Numbered stars: 1 amine (or outer) side, 2 acyl side, 3 side chain; on linkers, the order of the positions; unused ones are H or OH. Bridge positions count the residues as written; N and C are the ends. Square brackets hold non-standard residues; d marks the D form. Peptide text beside a SMILES is read from it. I, II: the chains in the order shown. Actinocin(9to1) = Cc1c2oc3c(C)ccc(C(=O)[*:1])c3nc-2c(C(=O)[*:2])c(N)c1=O; NMeV = CN[CH](C(=O)O)C(C)C; Sar = CNCC(=O)O

test system: cytotoxicity, CellTiter-Glo ATP luminescence; assay: cell cytotoxicity, dose response, cytotoxicity control, CellTiter-Glo (AID 1259333)

Row | SMILES | AC50
1 | COc1c(-c2coc3cc4c(cc3c2=O)CC(O)C(C)(C)O4)ccc2c1C=CC(C)(C)O2 (centres undefined) | > 20 µM (inactive)
2 | C[C@@H]1CN([C@@H](C)CO)C(=O)c2c(c3ccccc3n2C)-c2ccccc2CO[C@H]1CN(C)Cc1ccccc1 | 9.77 µM
3 | COc1ccc(S(=O)(=O)Nc2ccc3c(c2)C(=O)N([C@@H](C)CO)C[C@H](C)[C@H](CN(C)Cc2ccc(C(F)(F)F)cc2)OCCCC[C@H](C)O3)cc1 | > 20 µM (inactive)
4 | CC1=CC(C)(C)N=C(Nc2nc(C)c3cc(C)cc(C)c3n2)N1 | 1.46 µM
5 | O=C1Cc2c([nH]c3ccc(Br)cc23)-c2ccccc2N1 | 10.2 µM
6 | C[C@H]1CN([C@@H](C)CO)C(=O)c2c(c3ccccc3n2C)-c2ccccc2CO[C@H]1CN(C)C(=O)Nc1cccc(C(F)(F)F)c1 | 0.878 µM
7 | CC(=O)OC1CC2(O)C3CCC4CC(O)CCC4(C)C3CCC2(C)C1C1=CC(=O)OC1 (centres undefined) | 0.559 µM
8 | COc1cccc2c1C(=O)c1c(O)c3c(c(O)c1C2=O)C[C@@](O)(C(C)=O)C[C@@H]3OC1CC(N)C(O)C(C)O1 (some centres undefined) | 2.72 µM
9 | C[C@@H]1CC=CC[C@H](c2ccc(F)cc2)NC(=O)[C@@H](Cc2ccccc2)N(C)C(=O)c2ccccc2O1 (mixture of isomers) | > 20 µM (inactive)
10 | COC(=O)C1=C(C)NC(C)=C(C(=O)OCCCN2CCC(c3ccccc3)(c3ccccc3)CC2)[C@H]1c1cccc([N+](=O)[O-])c1 | > 20 µM (inactive)
11 | C[C@@H]1CN([C@@H](C)CO)C(=O)c2ccccc2-c2ccccc2CO[C@@H]1CN(C)Cc1ccc(Oc2ccccc2)cc1 | 8.71 µM
12 | CO[C@H]1CC(O[C@@H]2/C(C)=C/C[C@@H]3C[C@@H](C[C@]4(CC[C@H](C)[C@@H](C5CCCCC5)O4)O3)OC(=O)[C@@H]3C=C(C)/C(=N/O)[C@H]4OC/C(=C\C=C\[C@@H]2C)[C@]43O)O[C@@H](C)C1O (some centres undefined) | 9.15 µM
13 | O=C(c1ccc(Nc2nccc(-c3cc4ccccc4s3)n2)cc1)N1CCC(N2CCCC2)CC1 | 3.83 µM and 1.17 µM
14 | c1ccc2nc(-c3nc4ccccc4o3)ccc2c1 | > 20 µM (inactive)
15 | Cc1c2oc3c(C)ccc(C(=O)OC(C)C4NC(=O)C(C(C)C)N(C)C(=O)CN(C)C(=O)C5CCCN5C(=O)C(C(C)C)NC4=O)c3nc-2c(C(=O)OC(C)C2NC(=O)C(C(C)C)N(C)C(=O)CN(C)C(=O)C3CCCN3C(=O)C(C(C)C)NC2=O)c(N)c1=O (centres undefined) (I: cyclo([Sar][NMeV]TVP) / II: cyclo([Sar][NMeV]TVP); linker I:3-II:3 via Actinocin(9to1); configuration not given here) | > 20 µM (inactive)
16 | NC(=O)c1c(Br)n(C2OC(CO)C(O)C2O)c2ncnc(N)c12 (centres undefined) | 3.14 µM
17 | N#C[C@@H]1[C@H](c2ccc(C#CC3CCCCC3)cc2)[C@@H](CO)N1C(=O)Nc1ccc(F)cc1 | > 20 µM (inactive)
18 | CC(=O)OCC12CC(OC(=O)CC(C)C)C(C)=CC1OC1C(O)C(OC(C)=O)C2(C)C12CO2 (centres undefined) | 3.67 µM
19 | CC1OC(OC2CC(O)C3(CO)C4C(O)CC5(C)C(C6=CC(=O)OC6)CCC5(O)C4CCC3(O)C2)C(O)C(O)C1O (centres undefined) | 0.236 µM
20 | CCCNC(=O)N1[C@@H](C#N)[C@H](c2ccc(-c3cccc(OC)c3)cc2)[C@@H]1CO | > 20 µM (inactive)

Row | SMILES | AC50
21 | C[n+]1c(-c2ccccc2)cc2c(=Cc3ccc([N+](=O)[O-])cc3)c3ccccc3n21 | 9.92 µM
22 | C[C@@H]1CN([C@@H](C)CO)C(=O)Cc2cc(NC(=O)Cc3cn(C)c4ccccc34)ccc2O[C@H]1CN(C)Cc1ccc(C(F)(F)F)cc1 | > 20 µM (inactive)
23 | C[C@@H]1CN([C@@H](C)CO)C(=O)c2ccccc2-c2ccccc2CO[C@H]1CN(C)Cc1ccccc1C(F)(F)F | 7.28 µM
24 | C[C@@H]1CN([C@H](C)CO)C(=O)c2c(c3ccccc3n2C)-c2ccccc2CO[C@H]1CN(C)C(=O)Nc1cccc(Cl)c1Cl | 10.1 µM
25 | CC(=O)Nc1ccc(Sc2ccc([N+](=O)[O-])o2)cc1 | 6.13 µM
26 | C[C@@H]1CN([C@@H](C)CO)C(=O)c2c(c3ccccc3n2C)-c2ccccc2CO[C@H]1CN(C)S(=O)(=O)c1ccc([N+](=O)[O-])cc1 | > 20 µM (inactive)
27 | CC[C@@]1(O)C(=O)OCc2c1cc1n(c2=O)Cc2cc3ccccc3nc2-1 | 9.41 µM
28 | Cc1ccc(OCCn2cnc3c(N)ncnc32)cc1 | > 20 µM (inactive)
29 | N#Cc1c(Br)n(C2OC(CO)C(O)C2O)c2ncnc(N)c12 (centres undefined) | 4.91 µM
30 | CC12CCC3C(CCC4(O)CC(O)CCC34C=O)C1(O)CCC2C1=CC(=O)OC1 (centres undefined) | 3.23 µM
31 | C[C@@H]1CN([C@H](C)CO)C(=O)c2c(c3ccccc3n2C)-c2ccccc2CO[C@H]1CN(C)Cc1cccc(C(F)(F)F)c1 | > 20 µM (inactive)
32 | N#Cc1cccc(-c2ccc(C3[C@H]4CNC[C@@H]3N4Cc3ccc4c(c3)OCO4)cc2)c1 (some centres undefined) | > 20 µM (inactive)
33 | Clc1ccc(COC(Cn2ccnc2)c2ccc(Cl)cc2Cl)c(Cl)c1 (centres undefined) | 8.13 µM
34 | COc1ccc(CN2CC3(CN(C(=O)Cc4ccccc4)C3)c3c([nH]c4cc(OC)ccc34)[C@@H]2CO)cc1 | 9.43 µM
35 | Cc1noc(C)c1S(=O)(=O)Nc1ccc2c(c1)C(=O)N([C@@H](C)CO)C[C@H](C)[C@@H](CN(C)C(=O)Nc1cccc3ccccc13)OCCCC[C@H](C)O2 | > 20 µM (inactive)
36 | COc1cc(/C=N/n2cnnc2)ccc1OC(=O)c1ccncc1 | 8.07 µM
37 | C[C@H](CO)N1C[C@H](C)[C@@H](CN(C)Cc2cccc(C(F)(F)F)c2)OCc2ccccc2-c2c(n(C)c3ccccc23)C1=O | 6.4 µM
38 | CC(C)=CCc1c2c(c3occ(-c4ccc(O)c(O)c4)c(=O)c3c1O)C=CC(C)(C)O2 | 5.55 µM
39 | O=C1NC2C(=CC(O)C(O)C2O)c2cc3c(c(O)c21)OCO3 (centres undefined) | 10 µM
